Measurements: patent US20210094919A1, “KRAS MUTANT PROTEIN INHIBITORS” (Jacobio Pharmaceuticals Co., Ltd., priority 2019, published 2021)

Target: T1, HIS-KRAS (G12C, aa 2-185) (Homo sapiens, UniProt P01116, G12C)
T1 construct: HIS-KRAS (G12C, aa 2-185, Sino biological); purchased Sino biological
Assay: SOS1 catalyzed nucleotide exchange assay (TR-FRET)
Format: biochemical
Conditions: GDP-loaded HIS-KRAS (G12C) pre-incubated with compound 1 hour, SOS1 ExD and BODIPY FL GTP added, 4 hours at 25° C.
Procedure: HIS-KRAS (G12C, aa 2-185, Sino biological) was diluted to 5 μM in EDTA buffer (20 mM HEPES, pH 7.4, 50 mM NaCl, 10 mM EDTA, 0.01% (v/v) Tween-20) and incubated for 30 min at 25° C. The EDTA pretreated HIS-KRAS (G12C) was diluted to 12 nM in assay buffer (25 mM HEPES, pH 7.4, 120 mM NaCl, 5 mM MgCl2, 1 mM DTT, 0.01% (v/v) Tween 20, 0.1% (w/v) BSA) containing 120 nM GDP (Sigma) and MAb Anti 6HIS-Tb cryptate Gold (Cisbio) and incubated for 1 hour at 25° C. to prepare GDP-loaded HIS-KRAS (G12C). The GDP-loaded HIS-KRAS (G12C) was pre-incubation with diluted compounds in a 384-well plate (Greiner) for 1 hour, then purified SOS1 ExD (Flag tag, aa 564-1049) and BODIPY™ FL GTP (Invitrogen) were added to the assay wells (Final concentration: 3 nM HIS-KRAS (G12C), 2 μM SOS1 ExD, 80 nM BODIPY™ FL GTP, 21 ng/mL MAb Anti 6HIS-Tb cryptate Gold) and incubated for 4 hours at 25° C. TR-FRET signals were then read on Tecan Spark multimode microplate reader. The parameters were F486: Excitation 340 (35) nm, Emission 486 (10) nm, Lag time 100 las, Integration time 200 las; F515: Excitation 340 (35) nm, Emission 515 (10) nm, Lag time 100 las, Integration time 200 las. TR-FRET ratios for each individual wells were calculated by equation: TR-FRET ratio=(Signal F515/Signal F486)*10000. Then the data were analyzed using a 4-parameter logistic model to calculate IC50 values.

T1 sequence (P01116 2-185 isoform P01116-2 G12C): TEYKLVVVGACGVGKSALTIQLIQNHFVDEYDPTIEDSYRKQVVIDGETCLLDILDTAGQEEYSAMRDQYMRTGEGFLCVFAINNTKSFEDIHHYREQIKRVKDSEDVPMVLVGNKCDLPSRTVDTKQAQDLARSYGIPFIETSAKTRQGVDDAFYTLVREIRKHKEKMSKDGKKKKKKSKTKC

SMILES | IC50 [µM]
C=CC(=O)N1CCN(c2c(C#N)c(OC[C@@H]3CCCN3C)nc3c2CCN(c2cccc4cccc(C)c24)C3)CC1CC#N (stereo partly drawn) [Compound 1, 4-(4-acryloyl-3-(cyanomethyl)piperazin-1-yl)-7-(8-methylnaphthalen-1-yl)-2-(((S)-1-methylpyrrolidin-2-yl)methoxy)-5,6,7,8-tetrahydro-1,7-naphthyridine-3-carbonitrile] | 0.0531
C=CC(=O)N1CCN(c2c(C#N)c(OC[C@@H]3CCCN3C)nc3c2CCN(c2cccc4cccc(C)c24)C3)CC1 [Compound 2, (S)-4-(4-acryloylpiperazin-1-yl)-7-(8-methylnaphthalen-1-yl)-2-((1-methylpyrrolidin-2-yl)methoxy)-5,6,7,8-tetrahydro-1,7-naphthyridine-3-carbonitrile] | > 1
C=CC(=O)N1[C@H](C)CN(c2c(C#N)c(OC[C@@H]3CCCN3C)nc3c2CCN(c2cccc4cccc(C)c24)C3)C[C@@H]1C [Compound 3, 4-((3S,5R)-4-acryloyl-3,5-dimethylpiperazin-1-yl)-7-(8-methylnaphthalen-1-yl)-2-(((S)-1-methylpyrrolidin-2-yl)methoxy)-5,6,7,8-tetrahydro-1,7-naphthyridine-3-carbonitrile] | > 1
C=CC(=O)N1CC(Nc2c(C#N)c(OC[C@@H]3CCCN3C)nc3c2CCN(c2cccc4cccc(C)c24)C3)C1 [Compound 4, (S)-4-((1-acryloylazetidin-3-yl)amino)-7-(8-methylnaphthalen-1-yl)-2-((1-methylpyrrolidin-2-yl)methoxy)-5,6,7,8-tetrahydro-1,7-naphthyridine-3-carbonitrile] | > 1
C=CC(=O)N1CCN(c2c(C#N)c(OC[C@@H]3CCCN3C)nc3c2CCN(c2cccc4cccc(C)c24)C3)C[C@H]1C [Compound 5, 4-((R)-4-acryloyl-3-methylpiperazin-1-yl)-7-(8-methylnaphthalen-1-yl)-2-(((S)-1-methylpyrrolidin-2-yl)methoxy)-5,6,7,8-tetrahydro-1,7-naphthyridine-3-carbonitrile] | > 1
C=CC(=O)N1CCN(c2c(C#N)c(OC[C@@H]3CCCN3C)nc3c2CCN(c2cccc4cccc(C)c24)C3)C[C@@H]1C [Compound 6, 4-((S)-4-acryloyl-3-methylpiperazin-1-yl)-7-(8-methylnaphthalen-1-yl)-2-(((S)-1-methylpyrrolidin-2-yl)methoxy)-5,6,7,8-tetrahydro-1,7-naphthyridine-3-carbonitrile] | > 1
